Results on 17 compounds are retold here after patent publication US8697705B2, “Isoindolinone derivatives” (Hoffmann-La Roche Inc., priority 2011, dated 2014).

For the first experiment, the target named is T1, Recombinant human liver GK1 (GST-GK) (Homo sapiens, UniProt P35557).
T1 construct: made in house; host or cells: E. coli
T1 sequence (P35557 1-466 isoform P35557-2): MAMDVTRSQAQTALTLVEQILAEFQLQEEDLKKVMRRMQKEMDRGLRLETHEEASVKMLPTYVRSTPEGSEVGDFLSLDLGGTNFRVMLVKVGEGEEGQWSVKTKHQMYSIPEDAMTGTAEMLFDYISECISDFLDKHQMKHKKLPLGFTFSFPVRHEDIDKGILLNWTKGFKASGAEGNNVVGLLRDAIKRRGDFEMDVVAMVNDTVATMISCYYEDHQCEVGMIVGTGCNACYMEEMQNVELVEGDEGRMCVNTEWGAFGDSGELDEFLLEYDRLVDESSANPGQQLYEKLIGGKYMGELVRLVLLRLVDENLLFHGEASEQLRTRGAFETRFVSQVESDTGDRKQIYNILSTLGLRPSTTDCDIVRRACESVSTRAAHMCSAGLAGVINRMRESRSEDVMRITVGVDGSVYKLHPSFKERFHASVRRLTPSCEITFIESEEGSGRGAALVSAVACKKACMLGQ
In words: Glucokinase in vitro assay (G6PDH-coupled, NADH generation, OD340). The conditions noted are these: 30° C., 5 mM D-glucose, 10% dimethylsulfoxide. The experiment is classed as biochemical. The method, then:
Glucokinase In Vitro Assay Protocol:
Glucokinase (GK) was assayed by coupling the production of glucose-6-phosphate to the generation of NADH with glucose-6-phosphate dehydrogenase (G6PDH, 0.75-1 kunits/mg; Boehringer Mannheim, Indianapolis, Ind.) from Leuconostoc mesenteroides as the coupling enzyme (Scheme 2).
Recombinant human liver GK1 was expressed in E. coli as a glutathione S-transferase fusion protein (GST-GK) and was purified by chromatography over a glutathione-Sepharose 4B affinity column using the procedure provided by the manufacturer (Amersham Pharmacia Biotech, Piscataway, N.J.).
The assay was conducted at 30° C. in a flat bottom 96-well tissue culture plate from Costar (Cambridge, Mass.) with a final incubation volume of 120 μL. The incubation reaction contained the following: 25 mM Hepes buffer (pH 7.1), 25 mM KCl, 5 mM D-glucose, 1 mM ATP, 1.8 mM NAD, 2 mM MgCl2, 1 μM sorbitol-6-phosphate, 1 mM dithiothreitol, test drug or 10% dimethylsulfoxide, ˜7 units/ml G6PDH, and GK (see below). All organic reagents were >98% pure and were from Boehringer Mannheim with the exceptions of D-glucose and Hepes which were from Sigma Chemical Co, St Louis, Mo. Test compounds were dissolved in dimethylsulfoxide and were added to the incubation reaction minus GST-GK in a volume of 12 μL to yield a final dimethylsulfoxide concentration of 10%. This mix was pre-incubated in the temperature controlled chamber of a SPECTRAmax 250 microplate spectrophotometer (Molecular Devices Corporation, Sunnyvale, Calif.) for 10 minutes to allow temperature equilibrium and then the reaction was started by the addition of 20 μL GST-GK.
After addition of enzyme, the increase in optical density (OD) at 340 nm was monitored spectrophotometrically to determine the rate of change (OD340 per min). The GK activity (OD340/min) in control wells (10% dimethylsulfoxide minus GK activators) was compared with the activity in wells containing test GK activators, and the concentration of activator that produced a 50% increase in the activity of GK, i.e., the SC1.5, was calculated.
As to `O=C(Nc1ccn(CCCO)n1)[C@H](CC1CCCC1)N1Cc2ccccc2C1=O` [Example 12, (S)-3-Cyclopentyl-N-[1-(3-hydroxy-propyl)-1H-pyrazol-3-yl]-2-(1-oxo-1,3-dihydro-isoindol-2-yl)-propionamide], the “SC1.5 (concentration of activator that produced a 50% increase in the activity of GK)” value came out at 1.857 µM.

`CC(C)C[C@@H](C(=O)Nc1cnccn1)N1Cc2c(cccc2C(F)(F)F)C1=O` [Example 23, (S)-4-Methyl-2-(1-oxo-4-trifluoromethyl-1,3-dihydro-isoindol-2-yl)-pentanoic acid pyrazin-2-ylamide]: the “SC1.5 (concentration of activator that produced a 50% increase in the activity of GK)” value was determined as 1.422 µM.

With `CC(C)(C)OC(=O)CCn1ccc(NC(=O)[C@H](CC2CCCC2)N2Cc3c(cccc3C(F)(F)F)C2=O)n1` [Example 19, 3-{3-[(S)-3-Cyclopentyl-2-(1-oxo-4-trifluoromethyl-1,3-dihydro-isoindol-2-yl)-propionylamino]-pyrazol-1-yl}-propionic acid tert-butyl ester], the “SC1.5 (concentration of activator that produced a 50% increase in the activity of GK)” value amounted to 0.334 µM.

Consider `O=C(Nc1ccn(C[C@H](O)CO)n1)[C@H](CC1CCCC1)N1Cc2c(cccc2C(F)(F)F)C1=O` [Example 6, (S)-3-Cyclopentyl-N-[1-((S)-2,3-dihydroxy-propyl)-1H-pyrazol-3-yl]-2-(1-oxo-4-trifluoromethyl-1,3-dihydro-isoindol-2-yl)-propionamide], for which the “SC1.5 (concentration of activator that produced a 50% increase in the activity of GK)” value was 0.119 µM.

In the case of `COCCn1ccc(NC(=O)[C@H](CC2CCCCC2)N2Cc3ccccc3C2=O)n1` [Example 8, (S)-3-Cyclohexyl-N-[1-(2-methoxy-ethyl)-1H-pyrazol-3-yl]-2-(1-oxo-1,3-dihydro-isoindol-2-yl)-propionamide], the “SC1.5 (concentration of activator that produced a 50% increase in the activity of GK)” value was 3.526 µM.

As to `O=C(Nc1ccn(CCO)n1)[C@H](CC1CCCC1)N1Cc2c(cccc2C(F)(F)F)C1=O` [Example 2, (S)-3-Cyclopentyl-N-[1-(2-hydroxy-ethyl)-1H-pyrazol-3-yl]-2-(1-oxo-4-trifluoromethyl-1,3-dihydro-isoindol-2-yl)-propionamide], the “SC1.5 (concentration of activator that produced a 50% increase in the activity of GK)” value turned out to be 0.186 µM.

For `CSCC[C@@H](C(=O)Nc1cnc([C@H](O)CO)cn1)N1Cc2c(cccc2C(F)(F)F)C1=O` [Example 22, (S)—N-[5-((S)-1,2-Dihydroxy-ethyl)-pyrazin-2-yl]-4-methylsulfanyl-2-(1-oxo-4-trifluoromethyl-1,3-dihydro-isoindol-2-yl)-butyramide], the “SC1.5 (concentration of activator that produced a 50% increase in the activity of GK)” value came out at 14.914 µM.

For `COCCn1ccc(NC(=O)[C@H](CC2CCCC2)N2Cc3ccccc3C2=O)n1` [Example 9, (S)-3-Cyclopentyl-N-[1-(2-methoxy-ethyl)-1H-pyrazol-3-yl]-2-(1-oxo-1,3-dihydro-isoindol-2-yl)-propionamide], the “SC1.5 (concentration of activator that produced a 50% increase in the activity of GK)” value turned out to be 1.6 µM.

For the compound `CC(C)OCCn1ccc(NC(=O)[C@H](CC2CCCC2)N2Cc3ccccc3C2=O)n1` [Example 11, (S)-3-Cyclopentyl-N-[1-(2-isopropoxy-ethyl)-1H-pyrazol-3-yl]-2-(1-oxo-1,3-dihydro-isoindol-2-yl)-propionamide], the “SC1.5 (concentration of activator that produced a 50% increase in the activity of GK)” value worked out at 2.091 µM.

As to `COC(C)(C)Cn1ccc(NC(=O)[C@H](CC2CCCC2)N2Cc3ccccc3C2=O)n1` [Example 14, (S)-3-Cyclopentyl-N-[1-(2-methoxy-2-methyl-propyl)-1H-pyrazol-3-yl]-2-(1-oxo-1,3-dihydro-isoindol-2-yl)-propionamide], the “SC1.5 (concentration of activator that produced a 50% increase in the activity of GK)” value was 1.242 µM.

Consider `COCCn1ccc(NC(=O)[C@H](CC2CCCCC2)N2Cc3c(F)cccc3C2=O)n1` [Example 18, (S)-3-Cyclohexyl-2-(4-fluoro-1-oxo-1,3-dihydro-isoindol-2-yl)-N-[1-(2-methoxy-ethyl)-1H-pyrazol-3-yl]-propionamide], for which the “SC1.5 (concentration of activator that produced a 50% increase in the activity of GK)” value is 0.962 µM.

Take `CC(C)C[C@@H](C(=O)Nc1cnc([C@H](O)CO)cn1)N1Cc2c(cccc2C(F)(F)F)C1=O` [Example 24, (S)-4-Methyl-2-(1-oxo-4-trifluoromethyl-1,3-dihydro-isoindol-2-yl)-pentanoic acid [5-((S)-1,2-dihydroxy-ethyl)-pyrazin-2-yl]-amide]: the “SC1.5 (concentration of activator that produced a 50% increase in the activity of GK)” value came out at 2.966 µM.

As to `CC(C)(C)OC(=O)Cn1ccc(NC(=O)[C@H](CC2CCCC2)N2Cc3c(cccc3C(F)(F)F)C2=O)n1` [Example 3, {3-[(S)-3-Cyclopentyl-2-(1-oxo-4-trifluoromethyl-1,3-dihydro-isoindol-2-yl)-propionylamino]-pyrazol-1-yl}-acetic acid tert-butyl ester], the “SC1.5 (concentration of activator that produced a 50% increase in the activity of GK)” value turned out to be 0.244 µM.

Take `O=C(Nc1cnc(Br)cn1)[C@H](CC1CCCC1)N1Cc2c(cccc2C(F)(F)F)C1=O` [Example 16, (S)—N-(5-Bromo-pyrazin-2-yl)-3-cyclopentyl-2-(1-oxo-4-trifluoromethyl-1,3-dihydro-isoindol-2-yl)-propionamide]: the “SC1.5 (concentration of activator that produced a 50% increase in the activity of GK)” value came to 0.062 µM.

As for `O=C(O)CCn1ccc(NC(=O)[C@H](CC2CCCC2)N2Cc3c(cccc3C(F)(F)F)C2=O)n1` [Example 20, 3-[3-[(S)-3-Cyclopentyl-2-(1-oxo-4-trifluoromethyl-1,3-dihydro-isoindol-2-yl)-propionylamino]-pyrazol-1-yl]-propionic acid], the “SC1.5 (concentration of activator that produced a 50% increase in the activity of GK)” value came to 0.457 µM.

Turning to `COC(C)(C)Cn1ccc(NC(=O)[C@H](CC2CC2)N2Cc3ccccc3C2=O)n1` [Example 10, (S)-3-Cyclopropyl-N-[1-(2-methoxy-2-methyl-propyl)-1H-pyrazol-3-yl]-2-(1-oxo-1,3-dihydro-isoindol-2-yl)-propionamide], the “SC1.5 (concentration of activator that produced a 50% increase in the activity of GK)” value is 20.625 µM.

In the case of `O=C(O)Cn1ccc(NC(=O)[C@H](CC2CCCC2)N2Cc3c(cccc3C(F)(F)F)C2=O)n1` [Example 4, {3-[(S)-3-Cyclopentyl-2-(1-oxo-4-trifluoromethyl-1,3-dihydro-isoindol-2-yl)-propionylamino]-pyrazol-1-yl}-acetic acid], the “SC1.5 (concentration of activator that produced a 50% increase in the activity of GK)” value came out at 0.439 µM.

Another experiment concerns C57BL/6J mice. The experiment can be described thus: Glucokinase activator in vivo screen: blood glucose lowering after oral gavage in mice. The settings on record: Mus musculus; vs. control at 2 hours post 25 mg/kg oral dose, C57B6 mice; read-out: % gluc lowering @ 2 H. The method, then:
Glucokinase Activator In Vivo Screen Protocol in Lean Mice:
Lean C57BL/6J mice were orally dosed via gavage with Glucokinase (GK) activator following a two hour fasting period. Blood glucose determinations were made at various (e.g. 0, 1, 2, 4 and 8 hours post-oral gavage) times during the study.
C57Bl/6J mice were obtained from Jackson Laboratory (Bar Harbor, Me.) and were maintained in a light-dark cycle with lights on from 0600-1800 hr. For studies in lean mice, the mice were received at age ten weeks and given ad libitum access to control diet (LabDiet 5001 chow, PMI Nutrition, Brentwood, Mo.), and were at least age 11 weeks at the time of study. For studies in the DIO model, the mice were received at age five weeks and given ad libitum access to Bio-Sery F3282 High Fat Diet (Frenchtown, N.J.), and were at least age 16 weeks at the time of study. The experiments were conducted during the light phase of the light-dark cycle. Mice (n=6) are weighed and fasted for a two hour period prior to oral treatment. GK activators are formulated in Gelucire vehicle (Ethanol:Gelucire44/14:PEG400q.s. 4:66:30 v/w/v). For studies in lean mice, the mice were dosed orally with 5.0 μL per gram of body weight (i.e. 5 ml/kg×10.0 mg/ml formulation to equal a 50 mg/kg dose). For studies in DIO mice, the mice were dosed orally with 5.0 μL per gram of body weight (i.e. 5.0 ml/kg×5 mg/ml formulation to equal a 25 mg/kg dose). Immediately prior to dosing, a pre-dose (time zero) blood glucose reading was acquired by snipping off a small portion of the animal's tail and collecting 15 μL blood into a heparinized capillary tube for analysis. Following GK activator administration, additional blood glucose readings were taken at various time points post dose from the same tail wound. Results were interpreted by comparing the mean blood glucose values of vehicle treated mice with GK activator treated mice over the study period.
Table 2 below provides data for % glucose lowering of a representative number of compounds of the present invention vs. control at 2 hours post 25 or 50 mg/kg dose in C57B6 mice: […]
For `O=C(Nc1ccn(C[C@H](O)CO)n1)[C@H](CC1CCCC1)N1Cc2c(cccc2C(F)(F)F)C1=O` [Example 6, (S)-3-Cyclopentyl-N-[1-((S)-2,3-dihydroxy-propyl)-1H-pyrazol-3-yl]-2-(1-oxo-4-trifluoromethyl-1,3-dihydro-isoindol-2-yl)-propionamide], the change in vivo at 25 mg/kg is -48.3%.

For `O=C(Nc1ccn(CCO)n1)[C@H](CC1CCCC1)N1Cc2c(cccc2C(F)(F)F)C1=O` [Example 2, (S)-3-Cyclopentyl-N-[1-(2-hydroxy-ethyl)-1H-pyrazol-3-yl]-2-(1-oxo-4-trifluoromethyl-1,3-dihydro-isoindol-2-yl)-propionamide], the change in vivo at 25 mg/kg was -38.8%.

`COCCn1ccc(NC(=O)[C@H](CC2CCCCC2)N2Cc3c(F)cccc3C2=O)n1` [Example 18, (S)-3-Cyclohexyl-2-(4-fluoro-1-oxo-1,3-dihydro-isoindol-2-yl)-N-[1-(2-methoxy-ethyl)-1H-pyrazol-3-yl]-propionamide]: the change in vivo at 25 mg/kg is -25.4%.
